Test results reported in PMC9574860, “Chemical Toolkit for PARK7: Potent, Selective, and High-Throughput” (Journal of Medicinal Chemistry, 2022).

Experiments:
[1] = molecular target: T1, UCHL1 (Homo sapiens, UniProt P09936); assay: UCHL1 activity assay (Ub-Rho-Morpholine or Ub-AMC substrate); assay type: biochemical; conditions: UCHL1 1 nM, 1 h preincubation; read-out: UbRhoMP assay UCHL1 IC50
T1 sequence (P09936 1-223): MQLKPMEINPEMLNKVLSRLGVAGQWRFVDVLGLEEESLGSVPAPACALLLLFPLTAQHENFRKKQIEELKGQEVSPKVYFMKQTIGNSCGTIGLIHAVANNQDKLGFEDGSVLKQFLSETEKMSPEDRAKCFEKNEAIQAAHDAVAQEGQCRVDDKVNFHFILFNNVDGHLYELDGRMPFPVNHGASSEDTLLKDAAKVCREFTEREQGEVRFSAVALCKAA
Protocol: The assay was performed in a buffer containing 50 mM Tris·HCl, 100 mM NaCl at pH 7.5, 2.0 mM cysteine, 1 mg/mL 3-[(3-cholamidopropyl)dimethylammonio]propanesulfonic acid (CHAPS), and 0.5 mg/mL bovine serum albumin and conducted in a 384-well plate (Corning 3820) with a reaction volume 20 μL in triplicate. The compounds were dissolved in DMSO as 10, 1, and 0.1 mM stock solutions and were transferred to obtain a 12-point serial dilution of 0.05 to 200 μM. Next, UCHL1 (15 μL, final concentration of 1 nM) was dispensed with a Biotek MultiFlowFX liquid dispenser and incubated for 1 h, followed by dispensing the substrate Ub-Rho-Morpholine or Ub-AMC (5 μL, final concentration of 400 nM). The FI signal was monitored with a BMG Labtech PHERAstar plate reader (λex/em 487/535 nm or λex/em 350/450 nm) for 1 h. N-Ethylmaleimide (NEM, 10 mM) was used as a positive control (100% inhibition), and DMSO was used as a negative control (0% inhibition). All samples were normalized to the positive and negative controls and plotted against the inhibitor concentrations (in μM) using the built-in equation “[inhibitor] vs response – variable slope (four parameters), least-squares fit” with constraints “Bottom = 0” and “Top = 100” in GraphPad Prism 9.0.1 software to obtain the IC50 values.

[2] = molecular target: T2, PARK7 (Homo sapiens, UniProt Q99497); assay: FP binding saturation experiment, kinact/KI of probe JYQ-107; design: GST (N, cleaved yes); made in house; host or cells: E. coli BL21(DE3) Rosetta2; conditions: FP probe binding to PARK7 (0 to 5 μM); slope of kobs vs PARK7 concentration; Figure S6D
T2 sequence (Q99497 1-189): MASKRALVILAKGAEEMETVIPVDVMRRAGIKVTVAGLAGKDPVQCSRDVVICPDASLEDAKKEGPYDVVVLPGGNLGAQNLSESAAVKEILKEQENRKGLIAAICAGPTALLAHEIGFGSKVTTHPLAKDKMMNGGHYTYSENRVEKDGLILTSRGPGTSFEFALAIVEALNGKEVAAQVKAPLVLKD
Protocol: First, the relation between the change in FP values for JYQ-107 binding to PARK7 was determined. We used a fixed concentration (20 nM) of JYQ-107, incubated it with different amounts of PARK7 (0 to 5 μM), and monitored the FP signal (λex/em 485/520 nm) over time (Supporting Information Figure S6A). The change in FP (ΔmP) was plotted against PARK7 concentration after different incubation times (Figure 5B, left, Supporting Information Figure S6B). […] The latter is expected, as covalent complex formation has a time-dependency, and thus, equilibrium binding values could not be determined for the FP reagent.[45] […] To this end, we calculated the Z’ value, a critical parameter used to assess the quality and HTS suitability of a given assay, for the used PARK7 concentrations and incubation times (Figure 5B, right, Supporting Information Figure S6C).[46] […]
This assay was performed in the buffer containing 50 mM Tris–HCl, 150 mM NaCl, 2 mM TCEP, pH 7.5, and 1 mg/mL CHAPS and conducted in a 384-well plate (Corning 3820) with a reaction volume 20 μL in triplicate. A serial dilution of PARK7 from 0 to 5 μM (final concentration) was mixed with constant concentration JYQ-107 ([…]), and the increasing FP signal over time was measured at λex/em 480/520 nm using a PHERAstar (BMG Labtech) for 150 min. […]

[3] = molecular target: T2, PARK7; assay: Probe labeling of purified recombinant PARK7 (SDS-PAGE, fluorescence scanning); assay type: binding; design: GST (N, cleaved yes); made in house; host or cells: E. coli BL21(DE3) Rosetta2; conditions: purified PARK7 1 μM, 1 h 37 °C; Figure 4A
Description: PARK7 inhibitor JYQ-88 was further converted into activity-based probes by installing SulfoCy5, Rhodamine110, or BodipyFL. We took advantage of the azide moiety in JYQ-88 and conjugated alkyne versions of these dyes using the copper(I)-catalyzed azide alkyne cycloaddition (CuAAC) to obtain compounds JYQ-92, JYQ-93, and JYQ-107 (Scheme 2). We next investigated the ability of the probes to label and visualize PARK7. […] The SulfoCy5 probe JYQ-92 and Rhodamine110 probe JYQ-107 labeled PARK7 already at 1 μM, while the BodipyFL probe JYQ-93 was less efficient than the other probes as PARK7 labeling was only observed from 5 μM.
All the labeling assays were performed in Tris buffer (50 mM Tris–HCl, 150 mM NaCl, 2 mM TCEP, pH 7.5). For labeling with the 8RK59 probe, 1 μM final concentrations of UCHL1 and PARK7 were individually or together incubated with 2 μM final concentrations of 8RK59 for 30 min at 37 °C, followed by protein visualization. For labeling with JYQ-92, JYQ-93, and JYQ-107, 1 μM final concentration of PARK7 was incubated with different concentrations (0, 0.1, 0.5, 1, 2, 5, and 10 μM) of the indicated probes for 1 h at 37 °C. […] These samples were resolved by SDS-PAGE using precast Bis-Tris gels (Invitrogen, NuPAGE) with MES SDS running buffer (Novex, NuPAGE).

- IC50 [1]: 18.5 µM
- kinact/KI [2]: 1180 M⁻¹ s⁻¹
- Probe concentration from which PARK7 labeling was observed [3]: 1 µM
Compound: N#CN1CC[C@@H](C(=O)Nc2nc3c(s2)CN(C(=O)Cn2cc(CCCNC(=O)c4ccc(-c5c6ccc(=N)cc-6oc6cc(N)ccc56)c(C(=O)O)c4)nn2)CC3)C1 [JYQ-107]
